Data: PubChem BioAssay AID1918947 (Molecular Pharmacology Branch, DTP, NCI, 2023)

Tested on: A498 complex spheroid viability
Assay: Anticancer human tumor A498 cell line growth inhibition;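 note: spheroids exposed to agents for seven days before readout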;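 for viability, T/C: 100% = DMSO vehicle-treated spheroids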
Conditions: for IC50: curve of first compound; for viability, T/C: stronger effect = lower value; active = viability on the fitted dose curve at most 10% of control; inactive = the rest
From the text: Multicellular complex tumor spheroid response to LSD1 Inhibitor Iadademstat in combination with a variety of drugs and investigational agents in selected tumor cell lines
The current study was undertaken to assess response to LSD1 inhibitors in combination with standard-of-care drugs and investigational agents in solid tumor complex spheroid models as well as in the K-562 leukemia. Complex spheroids include a stromal component modeled by human endothelial cells (HUVEC) and fibroblasts modeled by human mesenchymal stem cells (MSCs). The concentration ranges selected for each drug and investigational agent were based upon clinically achievable concentrations if the clinical Cmax of the agent was known.
Compounds. The drugs and investigational agents used in this study are listed on Table 1. All of the agents used, including staurosporine (NSC755774) and gemcitabine (NSC613327), were obtained from the Developmental Therapeutics Program, NCI. FDA-approved anticancer drugs are available from the NCI at http://dtp.nci.nih.gov/branches/dscb/oncology_drugset_explanation.html. Drugs and investigational agents were >95% pure by proton nuclear magnetic resonance (NMR) and liquid chromatography/mass spectrometry (LC/MS). Stock solutions were prepared at 400x in DMSO, stored at -70 degrees C, and diluted in fresh medium prior to their use. The final concentration of DMSO in cell culture wells never exceeded 0.25% (v/v). The FDA-approved anticancer drug set is available from the Developmental Therapeutics Program at https://dtp.cancer.gov/organization/dscb/obtaining/available_plates.htm. All drugs and investigational agents were tested over a range starting from a high concentration at or near the clinical Cmax and decreasing in half-log increments. If the clinical Cmax for an agent had not been determined, the highest concentration tested was 10 microM.
Cell Lines. The patient-derived cancer cell (PDC) lines: 292921-168-R-J2-PDC, K24384-001-R-PDC, and 521955-158-R2-J5-PDC pancreatic carcinomas, 556581-035-R-J1 ovarian carcinoma, 324938-238-R-J1-PDC, 855422-203-R-J1-PDC and 883617-216-R-J1-PDC urothelial bladder carcinomas, 743489-274-T-PDC renal cell carcinoma, 138582-R-J1 Merkel cell tumor, K60290-347-R-J1 and K57222-313-R-J1-PDC glioblastomas, 653999-131-R-J2-PDC, LG0703-F948-PDC, and 349418-098-R-PDC non-small cell lung carcinomas, 885512-296-R-J2-PDC, 171881-019-R-J1-PDC breast carcinomas and 186277-243-T-J2-PDC and 233499-124-R-J2-PDC colon carcinomas were obtained from the NCI Patient-Derived Models Repository (PDMR, https://pdmr.cancer.gov). The established cell lines NCI/ADR-RES (RRID:CVCL_14520 and OVCAR-5 (RRID:CVCL_1628) ovarian carcinomas, 786-O (RRID:CVCL_1051) and A498 (RRID:CVCL_A498) renal cell carcinoma, NCI-H211 (ATCC, cat. CRL-5824; RRID:CVCL_1529), NCI-H196 (ATCC, cat. CRL-5823, RRID:CVCL_1509), SW 1271 (ATCC, cat. CRL-2177, RRID:CVCL_1716) and NCI-H1876 (ATCC, cat. CRL-5902, RRID:CVCL_1503) small cell lung carcinomas, MDA-MB-231 (RRID:CVCL_0062) and MDA-MB-468 (RRID:CVCL_0419)breast carcinomas (10-12). Pooled donor human umbilical vein endothelial cells (HUVEC, Lonza, cat. CC-2519) and human mesenchymal stem cells (hMSC, Lonza, cat. PT-2501) were purchased from Lonza (Walkersville, MD).
Cell Culture. All cells were maintained in an incubator at 37 degrees C and 5% CO2 with 95% humidity. The PDC lines were cultured according to standard operating procedures established by the NCI PDMR (https://pdmr.cancer.gov). Briefly all PDCs were thawed and cultured in Matrigel-coated flasks prepared with a working solution of 1X Ham's F-12 nutrient mix, without supplementation (Invitrogen, Waltham, MA, cat. 11765054), 100 U/mL penicillin-streptomycin (Invitrogen, cat. 15140122), and 2.5% Matrigel (Corning Inc., Corning, NY, cat. 354248) for the first three passages. […]

Nc1ccccc1NC(=O)c1ccc(CNC(=O)OCc2cccnc2)cc1 + NC1CC1c1ccc(-c2cccc(O)c2)cc1
362 nM: IC50 (second compound 3.16 µM)
284 nM: IC50 (second compound 1 µM)
active: viability, T/C (second compound 0.1 µM, first compound 3 µM) 1.7% | viability, T/C (second compound 0.316 µM, first compound 3 µM) 1.7% | viability, T/C (second compound 1 µM, first compound 3 µM) 1.74% | viability, T/C (second compound 3.16 µM, first compound 3 µM) 2.01% | viability, T/C (second compound 10 µM, first compound 3 µM) 1.69%
266 nM: IC50 (second compound 10 µM)
333 nM: IC50 (second compound 0.316 µM)
357 nM: IC50 (second compound 0.1 µM)
inactive: viability, T/C (second compound 0.1 µM, first compound 0.00949 µM) 89.5% | viability, T/C (second compound 0.1 µM, first compound 0.03 µM) 88% | viability, T/C (second compound 0.1 µM, first compound 0.0949 µM) 72.6% | viability, T/C (second compound 0.1 µM, first compound 0.3 µM) 59.2% | viability, T/C (second compound 0.1 µM, first compound 0.949 µM) 19.5% | viability, T/C (second compound 0.316 µM, first compound 0.00949 µM) 93.1% | viability, T/C (second compound 0.316 µM, first compound 0.03 µM) 95.4% | viability, T/C (second compound 0.316 µM, first compound 0.0949 µM) 84.1% | viability, T/C (second compound 0.316 µM, first compound 0.3 µM) 50.6% | viability, T/C (second compound 0.316 µM, first compound 0.949 µM) 21.1% | viability, T/C (second compound 1 µM, first compound 0.00949 µM) 88.3% | viability, T/C (second compound 1 µM, first compound 0.03 µM) 89.3% | viability, T/C (second compound 1 µM, first compound 0.0949 µM) 77.7% | viability, T/C (second compound 1 µM, first compound 0.3 µM) 46% | viability, T/C (second compound 1 µM, first compound 0.949 µM) 20.6% | viability, T/C (second compound 3.16 µM, first compound 0.00949 µM) 81% | viability, T/C (second compound 3.16 µM, first compound 0.03 µM) 87.5% | viability, T/C (second compound 3.16 µM, first compound 0.0949 µM) 78.2% | viability, T/C (second compound 3.16 µM, first compound 0.3 µM) 55.7% | viability, T/C (second compound 3.16 µM, first compound 0.949 µM) 19.2% | viability, T/C (second compound 10 µM, first compound 0.00949 µM) 86.2% | viability, T/C (second compound 10 µM, first compound 0.03 µM) 78.6% | viability, T/C (second compound 10 µM, first compound 0.0949 µM) 70.7% | viability, T/C (second compound 10 µM, first compound 0.3 µM) 48.1% | viability, T/C (second compound 10 µM, first compound 0.949 µM) 19.4%

CC1(C)CCC(CN2CCN(c3ccc(C(=O)NS(=O)(=O)c4ccc(NCC5CCOCC5)c([N+](=O)[O-])c4)c(Oc4cnc5[nH]ccc5c4)c3)CC2)=C(c2ccc(Cl)cc2)C1 + NC1CC1c1ccc(-c2cccc(O)c2)cc1
3840 nM: IC50 (second compound 10 µM)
4160 nM: IC50 (second compound 0.316 µM)
4080 nM: IC50 (second compound 1 µM)
3700 nM: IC50 (second compound 3.16 µM)
active: viability, T/C (second compound 0.1 µM, first compound 10 µM) 7.58% | viability, T/C (second compound 0.316 µM, first compound 10 µM) 5.66% | viability, T/C (second compound 1 µM, first compound 10 µM) 6.2% | viability, T/C (second compound 3.16 µM, first compound 10 µM) 5.72% | viability, T/C (second compound 10 µM, first compound 10 µM) 7.06%
inactive: viability, T/C (second compound 0.1 µM, first compound 0.0316 µM) 109% | viability, T/C (second compound 0.1 µM, first compound 0.1 µM) 106% | viability, T/C (second compound 0.1 µM, first compound 0.316 µM) 102% | viability, T/C (second compound 0.1 µM, first compound 1 µM) 93.1% | viability, T/C (second compound 0.1 µM, first compound 3.16 µM) 69.6% | viability, T/C (second compound 0.316 µM, first compound 0.0316 µM) 108% | viability, T/C (second compound 0.316 µM, first compound 0.1 µM) 112% | viability, T/C (second compound 0.316 µM, first compound 0.316 µM) 96.6% | viability, T/C (second compound 0.316 µM, first compound 1 µM) 88.2% | viability, T/C (second compound 0.316 µM, first compound 3.16 µM) 66.7% | viability, T/C (second compound 1 µM, first compound 0.0316 µM) 103% | viability, T/C (second compound 1 µM, first compound 0.1 µM) 99.6% | viability, T/C (second compound 1 µM, first compound 0.316 µM) 98.9% | viability, T/C (second compound 1 µM, first compound 1 µM) 84.3% | viability, T/C (second compound 1 µM, first compound 3.16 µM) 64.1% | viability, T/C (second compound 3.16 µM, first compound 0.0316 µM) 100% | viability, T/C (second compound 3.16 µM, first compound 0.1 µM) 91.4% | viability, T/C (second compound 3.16 µM, first compound 0.316 µM) 98.9% | viability, T/C (second compound 3.16 µM, first compound 1 µM) 86.1% | viability, T/C (second compound 3.16 µM, first compound 3.16 µM) 57.2% | viability, T/C (second compound 10 µM, first compound 0.0316 µM) 91.9% | viability, T/C (second compound 10 µM, first compound 0.1 µM) 91.6% | viability, T/C (second compound 10 µM, first compound 0.316 µM) 86.6% | viability, T/C (second compound 10 µM, first compound 1 µM) 77.8% | viability, T/C (second compound 10 µM, first compound 3.16 µM) 59.9%
4510 nM: IC50 (second compound 0.1 µM)
